Publication PMC10475101, “Selective steroidogenic cytochrome P450 haem iron ligation by steroid-derived isonitriles” (Communications Chemistry, 2023)
Several values for one entry are separate records, joined by “and”; a condition that tells them apart may be missing. Identical values can stand only once. Entries after “also recorded” stand apart in the source; their conditions may differ.

What was measured:
CYP17A1 [1] = target: T1, CYP17A1 (Homo sapiens, UniProt P05093); test: Ligand binding assay (UV-visible difference spectra titration)
T1 construct: made in house
T1 sequence (P05093 1-508): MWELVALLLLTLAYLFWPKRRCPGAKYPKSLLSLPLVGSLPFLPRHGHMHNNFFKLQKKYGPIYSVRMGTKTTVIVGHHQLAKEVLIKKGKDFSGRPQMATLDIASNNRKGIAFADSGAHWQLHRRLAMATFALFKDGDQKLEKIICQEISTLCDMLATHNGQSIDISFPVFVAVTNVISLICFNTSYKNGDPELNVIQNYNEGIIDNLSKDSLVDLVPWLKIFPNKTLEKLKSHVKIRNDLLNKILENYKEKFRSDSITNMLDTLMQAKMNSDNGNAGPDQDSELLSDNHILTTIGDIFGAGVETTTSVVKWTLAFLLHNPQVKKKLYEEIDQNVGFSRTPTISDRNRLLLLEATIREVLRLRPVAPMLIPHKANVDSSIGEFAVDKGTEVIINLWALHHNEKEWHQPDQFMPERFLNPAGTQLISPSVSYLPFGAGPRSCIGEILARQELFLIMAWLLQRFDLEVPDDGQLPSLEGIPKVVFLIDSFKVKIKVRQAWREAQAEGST
Procedure: (§1) (Adapted from DeVore, et al.)[25] Ligand interaction with the heme iron was evaluated by titrating ligands into a cuvette containing purified CYP17A1[14], CYP2D6 L230D/L231R[26], or CYP3A4[27] and measured using a UV-visible scanning spectrophotometer. Enzyme was diluted to 0.2 µM in 100 mM potassium phosphate buffer (pH 7.4), 20% glycerol, and 100 mM sodium chloride and divided equally between two 5 mL cuvettes to evaluate high-affinity binding. Ligands dissolved in dimethylsulfoxide (DMSO) were added to the sample cuvette and an equal volume of DMSO to the reference cuvette. Difference spectra were recorded from 300 to 500 nm after equilibration of enzyme and ligand. Binding to the enzyme was measured as the difference in maximal and minimal absorbance: A387—A419 for pregnanolone and 3-formyl pregnanolone, and A435—A393 for compound 1 with CYP17A1; A434—A414 for compound 1 with CYP3A4 and CYP2D6. The dissociation constant and maximum spectral change were calculated using tight-binding or quadratic equation. All data fitting was accomplished using GraphPad Prism 9. Details of fitting are provided in Supplementary Information, and numerical data used to generate graphs in Figs. 2, 4 and 5 are provided in Supplementary Data 3 in Excel format.

CYP2D6 L230D/L231R = target: T2, CYP2D6 L230D/L231R (Homo sapiens, UniProt P10635, L230D/L231R); test: as above
T2 construct: made in house
Procedure: as §1

CYP17A1 [2] = target: T1, CYP17A1; test: Reduction and reoxidation assay
Procedure: (§2) Reduction of the 1-bound P450 complex was observed by taking a baseline absorbance reading from 400 to 500 nm using a UV-visible scanning spectrophotometer, of a 1 cm quartz cuvette containing 1 µM P450, with compound 1 at a saturating concentration (i.e., ≥ concentration needed to reach ΔAmax), in binding assay buffer (100 mM potassium phosphate buffer (pH 7.4), 20% glycerol, and 100 mM sodium chloride). A small quantity of sodium dithionite (spatula tip-full) was then added to the cuvette, and the spectra were recorded periodically over time to observe the formation of peaks indicating the reduction (~426 and 456 nm) and subsequent reoxidation (~435 nm) of the complex. The total time course for Fig. 6B was 103 min and 37 s. Numerical data used to generate graphs in Fig. 6 are provided in Supplementary Data 3 in Excel format.
(§3) 185 S2) Ligand binding and inhibition assays
(§4) 186 Reduction and reoxidation assays. Reduction of the isonitrile-bound P450 complex was observed by taking
(§5) 187 a baseline absorbance reading from 400 to 500 nm using a UV-visible scanning spectrophotometer, of a 1cm
(§6) 188 quartz cuvette containing 1 µM P450, with the selected isonitrile compound at a saturating concentration
(§7) 189 (i.e., ≥ concentration needed to reach ΔAmax), in the same buffer used for binding assays (100 mM potassium
(§8) 190 phosphate buffer (pH 7.4), 20% glycerol, and 100 mM sodium chloride). A small quantity of sodium dithionite
(§9) 191 (spatula tip-full) was then added to the cuvette, and the spectra were recorded periodically over time to
(§10) 192 observe the formation of peaks indicating the reduction (~426 and 456 nm) and subsequent reoxidation
(§11) 193 (~435 nm) of the complex. The total time course for Figure 6B was 103 minutes and 37 seconds. […]
(§12) 217 initiated by adding NADPH to a final concentration of 1 mM. After 20 minutes, metabolism was quenched
(§13) 218 by adding 50 µL acetonitrile and placed on ice. The reaction vials were centrifuged at 5000 xg for 5 minutes
(§14) 219 to pellet the precipitated protein, then the supernatant was injected onto a C18 column (Phenomenex, Luna,
(§15) 220 50 x 4.6 mm) for HPLC. Separation on HPLC was obtained using a mobile phase of 45%/55% water/methanol
(§16) 221 for 40 minutes. A standard curve of known product concentrations was used to convert the area under the
(§17) 222 curve to the amount of product produced.
(§18) 224 S3) Crystallization of 1-CYP17A1 complex and X-ray diffraction
(§19) 225 Protein Crystallization and Structure Determination. CYP17A1 was saturated with 3β-formyl-5α
(§20) 226 pregnanolone-20(R)-isonitrile (verified by 430 nm Soret peak) and prepared for crystallization via hanging

CYP2D6 = target: T3, CYP2D6 (Homo sapiens, UniProt P10635, L230D/L231R); test: Reduction and reoxidation assay
T3 construct: made in house
Procedure: as §2, §3, §4, §5, §6, §7, §8, §9, §10, §11, §12, §13, §14, §15, §16, §17, §18, §19, §20

[3] = CYP17A1/20-(R)-1 complex reduced by sodium dithionite
[4] = CYP2D6/20-(R)-1 complex reduced by sodium dithionite

T3 sequence (P10635 whole entry L230D/L231R): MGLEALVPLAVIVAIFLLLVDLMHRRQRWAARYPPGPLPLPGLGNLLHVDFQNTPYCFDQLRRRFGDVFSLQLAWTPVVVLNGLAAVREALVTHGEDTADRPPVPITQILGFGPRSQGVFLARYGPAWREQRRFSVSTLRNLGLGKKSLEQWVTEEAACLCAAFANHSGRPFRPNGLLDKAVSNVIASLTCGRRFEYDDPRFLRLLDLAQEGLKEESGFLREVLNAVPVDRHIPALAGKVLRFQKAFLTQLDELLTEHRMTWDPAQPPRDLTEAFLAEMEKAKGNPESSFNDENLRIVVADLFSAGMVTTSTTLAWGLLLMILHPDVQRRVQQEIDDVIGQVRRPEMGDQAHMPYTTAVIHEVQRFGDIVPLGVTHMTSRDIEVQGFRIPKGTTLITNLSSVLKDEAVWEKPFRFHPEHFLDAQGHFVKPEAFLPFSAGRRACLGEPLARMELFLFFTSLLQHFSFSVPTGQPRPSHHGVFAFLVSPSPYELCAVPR
T2 sequence (P10635 whole entry L230D/L231R): as above

**Q.** What does the source list for [C-]#[N+][C@H](C)[C@H]1CC[C@H]2[C@@H]3CC[C@H]4C[C@@H](OC=O)CC[C@]4(C)[C@H]3CC[C@]12C [Compound 1, 3β-formyl-5α-pregnanolone-(R)-20-isonitrile]?
**A.** Soret peak shift in difference spectra (CYP17A1 [1]; 2:1 mixture of C20 epimers of 1): 430 nm; Soret peak after titration (heme spectral shift from 417 nm water-bound) (CYP17A1 [1]; ferric CYP17A1, 430 nm = Fe—C isonitrile bond, 424 nm = type II Fe—N): 430 nm; dissociation constant estimate (tight binding equation fit) (CYP17A1 [1]; protein 200 nM, 95% CI undefined to 1.7 nM): 149 aM; dissociation constant for CYP2D6 relative to CYP17A1 (CYP2D6 L230D/L231R; CYP2D6 versus CYP17A1): 3 million; Kd (CYP2D6 L230D/L231R; protein 200 nM, 5 cm cuvette, n = 2, 95% CI undefined –6.4 nM, read-out: dissociation constant (Kd)): 0.49 nM and ~0.49 nM; Fe—CN—R bond formation on titration (CYP2D6 L230D/L231R; titration of CYP2D6): indicated the formation of the Fe—CN—R bond; reoxidation of reduced complex in air (CYP17A1 [2]; CYP17A1/20-(R)-1, in air over 105 min): largely resistant to re-oxidation; also recorded: little reoxidation; split Soret after reduction, higher-wavelength maximum (CYP17A1 [2]; [3]): 454 nm; split Soret after reduction, lower-wavelength maximum (CYP17A1 [2]; [3]): 430 nm and 429.5 nm; Soret peak after reoxidation in air (CYP2D6; CYP2D6/20-(R)-1): ~ 435 nm and 437 nm; reoxidation of reduced complex in air (CYP2D6; CYP2D6/20-(R)-1, same time period): re-oxidizes in air; split Soret after reduction, higher-wavelength maximum (CYP2D6; [4]): 455 nm; split Soret after reduction, lower-wavelength maximum (CYP2D6; [4]): 431 nm
